US10918633B2, “Method of treating coronavirus” (MyMD Pharmaceuticals, Inc., priority 2015, dated 2021)
Entries after “also recorded” stand apart in the source; their conditions may differ.

What was measured:
MAO-A = molecular target: T1, MAO-A (Homo sapiens, UniProt P21397); experiment: MAO-Glo luminescent assay, MAO-A inhibition; format: biochemical; conditions: FIG. 1
T1 construct: purchased
T1 sequence (P21397 1-527): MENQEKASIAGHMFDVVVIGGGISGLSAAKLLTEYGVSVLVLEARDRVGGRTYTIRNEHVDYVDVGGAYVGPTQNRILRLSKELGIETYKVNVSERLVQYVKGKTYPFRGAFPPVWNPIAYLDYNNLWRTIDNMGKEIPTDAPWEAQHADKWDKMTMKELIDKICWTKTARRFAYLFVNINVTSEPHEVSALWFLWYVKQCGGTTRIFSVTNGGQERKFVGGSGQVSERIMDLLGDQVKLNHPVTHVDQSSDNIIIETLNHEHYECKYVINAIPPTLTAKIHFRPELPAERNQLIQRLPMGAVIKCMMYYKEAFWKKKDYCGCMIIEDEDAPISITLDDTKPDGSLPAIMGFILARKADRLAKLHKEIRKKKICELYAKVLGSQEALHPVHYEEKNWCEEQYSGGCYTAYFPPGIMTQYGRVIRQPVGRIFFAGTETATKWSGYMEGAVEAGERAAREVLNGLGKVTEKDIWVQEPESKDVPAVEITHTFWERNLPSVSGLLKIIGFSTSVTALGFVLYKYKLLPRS
Description: (§1) This example describes experiments for determining monoamine oxidase (MAO) inhibition for isomyosmine and other alkaloids. MAOs are enzymes located on the outer membrane of mitochondria and are involved in the catabolism of monoamine neurotransmitters. There are two well-characterized isoenzymes: MAO-A, which predominantly catabolizes serotonin and norepinephrine, and MAO-B, which preferentially catabolizes benzylamine and phenylethylamine. Dopamine and tyramine are metabolized by both isoforms.
(§2) To detect the activity of MAO, a luminescent method (MAO-Glo Assay kit, from Promega, Cat #V1401) was used. In this method, a MAO substrate (a derivative of beetle luciferin provided in the kit) is mixed with the compound to be tested (in this case, myosmine and control compounds). Then, the MAO enzymes (either A or B, purchased separately) are added to the mixture and incubated with the reaction for 1 hour at room temperature. The MAO enzymes, if not inhibited by the test compound, will convert the substrate into methyl ester luciferin. Finally, a luciferin detection reagent (provided by the kit) is added (20 minutes at room temperature) to stop the MAO reaction and convert methyl ester luciferin into D-luciferin. […] The luminescent signal is measured and recorded using a luminometer. […]

MAO-B = molecular target: T2, MAO-B (Homo sapiens, UniProt P27338); experiment: MAO-Glo luminescent assay, MAO-B inhibition; format: biochemical; conditions: compared with myosmine, anatabine, anabasine, nornicotine; FIG. 2
T2 construct: purchased
T2 sequence (P27338 1-520): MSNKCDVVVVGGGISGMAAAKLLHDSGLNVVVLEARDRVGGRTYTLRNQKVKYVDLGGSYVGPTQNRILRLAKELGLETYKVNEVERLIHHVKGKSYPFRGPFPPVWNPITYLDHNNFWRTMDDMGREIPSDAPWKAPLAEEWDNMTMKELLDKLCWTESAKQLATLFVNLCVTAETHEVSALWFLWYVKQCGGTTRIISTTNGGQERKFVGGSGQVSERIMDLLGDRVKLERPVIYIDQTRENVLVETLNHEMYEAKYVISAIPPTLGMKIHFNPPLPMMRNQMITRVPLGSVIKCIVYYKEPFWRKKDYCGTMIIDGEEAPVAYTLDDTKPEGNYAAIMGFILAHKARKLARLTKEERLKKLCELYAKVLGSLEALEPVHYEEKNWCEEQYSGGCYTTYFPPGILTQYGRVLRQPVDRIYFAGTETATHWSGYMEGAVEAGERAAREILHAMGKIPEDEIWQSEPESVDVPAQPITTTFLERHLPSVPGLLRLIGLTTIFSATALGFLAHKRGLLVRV
Description: as §1, §2

[1] = test system: herpes labialis (cold sores), a type of herpes simplex; experiment: Treatment of herpes labialis (cold sores) in an individual; format: in vivo, human; conditions: 100 mg dose upon first feeling the onset of a cold sore
Description: This example illustrates administering isomyosmine to treat herpes labialis (cold sores), a type of herpes simplex occurring on the lip. An individual who experiences periodic outbreaks of herpes labialis was administered a 100 mg dose of isomyosmine upon first feeling the onset of a cold sore.

hydrogen sulfide (H2S) = experiment: Serum hydrogen sulfide (H2S) by ELISA in mice with EAE; format: in vivo; conditions: 5 mg/ml isomyosmine in water, FIG. 3A-3B
Description: This example describes an experiment to determine whether treatments with isomyosmine have an effect on hydrogen sulfide (H2S) quantity in mice with experimental autoimmune encephalomyelitis (EAE). Mice were immunized for EAE on day 0 and treated with either vehicle control or 5 mg/ml isomyosmine in water, for the duration of the experiment. Blood was collected, serum was separated and assayed for H2S via Kamiya Biomedical ELISA kit per the manufacturer's instructions. Two different experiments were performed. In the first experiment, blood was collected at the end of disease course. In the second experiment, blood was collected at day 12 after immunization.

[2] = test system: purified nitrate reductase; experiment: Cell-free nitrate reductase inhibition, Griess reaction; format: biochemical
Description: Standard concentrations of nitrate were incubated with purified nitrate reductase and vehicle or isomyosmine, and the Griess reaction was used to measure nitrite. Several concentrations of nitrate and two concentrations of isomyosmine were used.

## C1=NC(c2cccnc2)CC1 (centres unmarked) [isomyosmine, 3-(3,4-dihydro-2H-pyrrol-2-yl)-pyridine]
MAO-A; 2 mM concentration (2,000 micromolar), read-out: inhibition of the enzymatic activity of MAO-A
  inhibition at 2000 µM: ~50%
MAO-A; compared with myosmine, anatabine, anabasine, nornicotine
  inhibition of the enzymatic activity of MAO-A (in words, curve position): most potent of the five; also recorded: potent inhibitor
MAO-B
  inhibition of the activity of MAO-B (in words): most potent among the five alkaloids tested; also recorded: potent inhibitor
[1]
  prevention of cold sore outbreak: effective to prevent the outbreak of the cold sore
Hydrogen sulfide (H2S); blood collected at day 12 after immunization
  H2S in serum as measured by ELISA: trend toward an increase in H2S
Hydrogen sulfide (H2S); blood collected at the end of disease course
  H2S in serum as measured by ELISA: trend toward an increase in H2S
[2]; high amount of substrate, system saturated (FIG. 4C)
  inhibition of nitrate reductase: inhibitory effect was reduced
[2]; low amount of substrate (FIG. 4A)
  inhibition of nitrate reductase: most efficiently
